The text below walks through data of patent publication US6489098B1, “Means and methods for monitoring nucleoside reverse transcriptase inhibitor antiretroviral therapy and guiding therapeutic decisions in the treatment of HIV/AIDS” (ViroLogic, Inc., priority 1998, dated 2002).

Entries after “also recorded” stand apart in the source; their conditions may differ.

Experiment [1] concerns HIV-1 RT mutant resistance test vector V75I. Put plainly: Phenotypic susceptibility assay, site directed RTV V75I. Type of experiment: cell-based. The following applies: RTV with V75I vs wild type RTV. As to the method: (§1) Resistance tests were carried out with resistance test vectors using two host cell types. Resistance test vector viral particles were produced by a first host cell (the resistance test vector host cell) that was prepared by transfecting a packaging host cell with the resistance test vector and the packaging expression vector. The resistance test vector viral particles were then used to infect a second host cell (the target host cell) in which the expression of the indicator gene is measured.
(§2) The resistance test vectors containing a functional luciferase gene cassette were constructed and host cells were transfected with the resistance test vector DNA. The resistant test vectors contained patient-derived reverse transcriptase and protease sequences that were either susceptible or resistant to the antiretroviral agents, such as nucleoside reverse transcriptase inhibitors, non-nucleoside reverse transcriptase inhibitors and protease inhibitors. The resistance test vector viral particles produced by transfecting the resistance test vector DNA into host cells, either in the presence or absence of protease inhibitors, were used to infect target host cells grown either in the absence of NRTI or NNRTI or In the presence of increasing concentrations of the drug. […] The IC50 values were determined by plotting percent drug inhibition vs. log 10 drug concentration.
(§3) Host cells were seeded in 10-cm-diameter dishes and were transfected several days after plating with resistance test vector plasmid DNA and the envelope expression vector. […] HIV capsid protein (p24) levels in the harvested cell culture media were determined by an EIA method as described by the manufacturer (SIAC; Frederick, Md.). […] The inhibitory effect of the drug was determined using the following equation: […]
Genotypic changes that are observed to correlate with changes in phenotypic patterns of drug susceptibility are evaluated by construction of resistance test vectors containing the specific mutation on a defined, wild-type (drug susceptible) genetic background. […]

Experiment [2] concerns HIV-1 RT mutant resistance test vector V75I+Q151M. Description: Phenotypic susceptibility assay, site directed RTV V75I+Q151M. Type of experiment: cell-based. The following applies: RTV with V75I+Q151M. The method, then: as §1
(§4) The resistance test vectors containing a functional luciferase gene cassette were constructed and host cells were transfected with the resistance test vector DNA. […] The IC50 values were determined by plotting percent drug inhibition vs. log 10 drug concentration.
as §3

In experiment [3] the test system is resistance test vectors containing five (M41L, D67N, K70R, T215Y, K219Q) or six (M41L, D67N, K70R, L210W, T215Y, K219Q) AZT resistance associated mutations. Description: Phenotypic susceptibility assay, site directed RTVs with five or six AZT resistance associated mutations. Type of experiment: cell-based, HIV-1. The method, then:
as §1, §4, §3

In experiment [4] the test system is HIV-1 RT mutant resistance test vector T69SSA and V75I. Put plainly: Phenotypic susceptibility assay, site directed RTV T69SSA+V75I. Type of experiment: cell-based. The following applies: V75I added onto the T69SSA background. As to the method: as §1, §4, §3
For experiment [5], the system named is HIV with multi-nucleoside resistance complex (A62V, V75I, F77L, Y116F and Q115M). To be noted: cited from earlier work.
Experiment [6] concerns HIV-1 RT mutant resistance test vector M41L-T69SSA-T215Y-L210W-RTV. Description: Phenotypic susceptibility assay, site directed RTV M41L+T69SSA+L210W+T215Y. The format is cell-based. To be noted: L210W introduced with M41L+T69SSA+T215Y. The method, then:
as §1
as §2, with “drug. The amount of luciferase activIty produced in infected target host cells in the presence of drug was compared to the amount of luciferase produced in infected target host cells in the absence of drug.” for “drug.”
as §3

The subject of a further experiment is HIV clinical isolates. To be noted: cited from earlier work.
The test system of experiment [7] is HIV with RT Leu74→Val mutation. The following applies: cited from earlier work.
The test system of experiment [8] is HIV with RT Thr69→Asp mutation. The following applies: cited from earlier work.
The test system of experiment [9] is HIV with M41L, L210W, T215Y plus M184V. To be noted: cited from earlier work.

For `Cc1cn([C@H]2C=C[C@@H](CO)O2)c(=O)[nH]c1=O` [d4T, stavudine], the “effect on susceptibility (words)” value in [1] is “did not alter d4T susceptibility; also recorded: did not reduce d4T susceptibility; also recorded: had no affect on d4T susceptibility”; in experiment [1] (listed as d4t) it was “no effect on d4t-susceptibility”; in [2] it was “decreased susceptibility to d4T; also recorded: reduced d4T and AZT susceptibility”; in experiment [3], “reduced susceptibility to d4T and AZT”; in experiment [4] it was “decreased susceptibility to d4T”. Moreover, in [5] (patients on prolonged ZDV plus ddI or ddC), the “cross-resistance of isolates with substitutions at codons 62, 75, 77, 116 and 115” value is reported as “cross-resistance”.
On to `Cc1cn([C@H]2C[C@H](N=[N+]=[N-])[C@@H](CO)O2)c(=O)[nH]c1=O` [AZT, zidovudine], for which the “effect on susceptibility (words)” value in experiment [6] is “substantial decrease in susceptibility to AZT”; in experiment [1] it was “increase in the susceptibility to AZT; also recorded: increased AZT susceptibility; also recorded: increased AZT susceptibility slightly”; in [3], “reduced susceptibility to d4T and AZT”; in experiment [4] it was “increased susceptibility to AZT”.
On to `Nc1ccn([C@H]2CC[C@@H](CO)O2)c(=O)n1` [ddC, zalcitabine], for which the “fold reduction in susceptibility for each ten-fold decrease in ZDV sensitivity” value in the experiment with HIV clinical isolates is reported as “two-fold”. Moreover, the “fold reduction in sensitivity” value in [7] is “around ten-fold”; in experiment [8], “five-fold”.
As for `Nc1nc(NC2CC2)c2ncn([C@H]3C=C[C@@H](CO)C3)c2n1` [ABC, abacavir], the “fold reduction in susceptibility” value in experiment [9] is given as “eight fold”; in [5] (A62V, V75I, F77L, Y116F and Q115M) it was 17 fold.
`O=c1[nH]cnc2c1ncn2[C@H]1CC[C@@H](CO)O1` [ddI, didanosine]: in the experiment on HIV clinical isolates, the “fold reduction in susceptibility for each ten-fold decrease in ZDV sensitivity” value is reported as 2.2 fold.
